The record followed here is PubChem BioAssay AID328 (DTP/NCI, 2004).

The subject of this assay is BDF1 mice, P388 leukemia ip, median survival T/C. The assay can be described thus: NCI In Vivo Anticancer Drug Screen. Data for tumor model P388 Leukemia (intraperitoneal) in B6D2F1 (BDF1) mice. To be noted: endpoint: median survival time, higher = longer survival. The method in brief:
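Survival ratio, drug arm over vehicle arm, in mice with a transplanted tumour.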

Where [1] appears, read: dose: 100.0 mg/kg/injection, schedule: Q04DX003 (ip), vehicle: saline with Tween-80.
The mark [2] stands for this setting: dose: 200.0 mg/kg/injection, schedule: Q04DX003 (ip), vehicle: saline with Tween-80.
The mark [3] stands for this setting: dose: 400.0 mg/kg/injection, schedule: Q04DX003 (ip), vehicle: saline with Tween-80.
The mark [4] stands for this setting: dose: 100.0 mg/kg/injection, schedule: Q04DX003 (ip), vehicle: saline.
The mark [5] stands for this setting: dose: 200.0 mg/kg/injection, schedule: Q04DX003 (ip), vehicle: saline.
Setting [6] is: dose: 400.0 mg/kg/injection, schedule: Q04DX003 (ip), vehicle: saline.
[7] abbreviates: dose: 50.0 mg/kg/injection, schedule: Q01DX009 (ip), vehicle: saline with Tween-80.
Setting [8] is: dose: 100.0 mg/kg/injection, schedule: Q01DX009 (ip), vehicle: saline with Tween-80.
Setting [9] is: dose: 200.0 mg/kg/injection, schedule: Q01DX009 (ip), vehicle: saline with Tween-80.

Molecules are shown by their SMILES. Values joined by “and” are separate entries in the source; they are usually repeats but may differ in a detail not shown here. Identical values can stand only once. Inconclusive results and toxic doses are left out. Starred links: 1 amine or outer side, 2 acyl side, 3 side chain; linkers in the order of their positions; H or OH if unused. Positions of bridges follow the written chain, without caps; N, C: chain ends. Non-standard residues stand in square brackets, D forms with d. Residues, ends and D or L forms follow the SMILES beside them. Chains are numbered I, II in the order given. Actinocin(1to9) = Cc1c2oc3c(C)ccc(C(=O)[*:2])c3nc-2c(C(=O)[*:1])c(N)c1=O; X3 = O=C1CC(C(=O)[*:2])N([*:1])C1; NMeV = CN[CH](C(=O)O)C(C)C; Sar = CNCC(=O)O

For the compound `Cc1cc(C(C)(C)CC(C)(C)C)ccc1O`, the T/C by setting is: (dose: 88.0 mg/kg/injection, schedule: Q01DX009 (sc), vehicle: olive oil, sesame oil, peanut oil) 100 % of control; (dose: 100.0 mg/kg/injection, schedule: Q01DX009 (sc), vehicle: olive oil, sesame oil, peanut oil) 100 % of control; (dose: 100.0 mg/kg/injection, schedule: Q04DX003 (sc), vehicle: olive oil, sesame oil, peanut oil) 91 % of control; (dose: 133.0 mg/kg/injection, schedule: Q01DX009 (sc), vehicle: olive oil, sesame oil, peanut oil) 92 % of control; (dose: 200.0 mg/kg/injection, schedule: Q01DX009 (sc), vehicle: olive oil, sesame oil, peanut oil) 86 % of control; (dose: 200.0 mg/kg/injection, schedule: Q04DX003 (sc), vehicle: olive oil, sesame oil, peanut oil) 100 % of control. The T/C was 106 % of control (dose: 300.0 mg/kg/injection, schedule: Q01DX009 (sc), vehicle: olive oil, sesame oil, peanut oil); 110 % of control (dose: 400.0 mg/kg/injection, schedule: Q01DX009 (sc), vehicle: olive oil, sesame oil, peanut oil); 104 % of control (dose: 400.0 mg/kg/injection, schedule: Q04DX003 (sc), vehicle: olive oil, sesame oil, peanut oil).
Regarding `O=C(Nc1ccccc1C(=O)c1ccccn1)c1ccccc1`, the T/C (dose: 100.0 mg/kg/injection, schedule: Q04DX003 (ip), vehicle: saline sonified) is 90 % of control; the T/C (dose: 200.0 mg/kg/injection, schedule: Q04DX003 (ip), vehicle: saline sonified) was 90 % of control; the T/C (dose: 400.0 mg/kg/injection, schedule: Q04DX003 (ip), vehicle: saline sonified) was 90 % of control.
Consider `O=C(O)/C=N/NS(=O)(=O)/C=C/c1ccccc1`, for which the T/C runs as follows: (dose: 50.0 mg/kg/injection, schedule: Q01DX009 (ip), vehicle: other) 155 % of control; (dose: 100.0 mg/kg/injection, schedule: Q01DX009 (ip), vehicle: other) 186 % of control.
As for `Cc1c2oc3c(C)ccc(C(=O)NC4C(=O)NC(C(C)C)C(=O)N5CCCC5C(=O)N(C)CC(=O)N(C)C(C(C)C)C(=O)OC4C)c3nc-2c(C(=O)NC2C(=O)NC(C(C)C)C(=O)N3CC(=O)CC3C(=O)N(C)CC(=O)N(C)C(C(C)C)C(=O)OC2C)c(N)c1=O` (stereo not given) (I: TV[X3][Sar][NMeV] / II: TVP[Sar][NMeV]; ester I:1-I:C, II:1-II:C; linker I:N-II:N via Actinocin(1to9); configuration not given here), the T/C is 120 % of control (dose: 1.6 micrograms/kg/injection, schedule: Q01DX009 (ip), vehicle: water); 163 % of control (dose: 4.7 micrograms/kg/injection, schedule: Q04DX003 (ip), vehicle: water); 162 % of control (dose: 9.4 micrograms/kg/injection, schedule: Q04DX003 (ip), vehicle: water); 172 % of control (dose: 12.5 micrograms/kg/injection, schedule: Q01DX009 (ip), vehicle: water); 155 % of control (dose: 25.0 micrograms/kg/injection, schedule: Q01DX001 (ip), vehicle: water); 120 % of control (dose: 25.0 micrograms/kg/injection, schedule: Q01DX009 (ip), vehicle: water). The T/C reads like this: (dose: 37.5 micrograms/kg/injection, schedule: Q04DX003 (ip), vehicle: water) 175 % of control; (dose: 50.0 micrograms/kg/injection, schedule: Q01DX001 (ip), vehicle: water) 155 % of control; (dose: 75.0 micrograms/kg/injection, schedule: Q04DX003 (ip), vehicle: water) 86 % of control.
`Cc1ccc(NS(=O)(=O)c2ccc([N+](=O)[O-])cc2)c(C)c1`: the T/C runs as follows: under setting [1], 100 % of control; under setting [2], 104 % of control; under setting [3], 104 % of control.
Regarding `COC(=O)C1CCCCC1NC(C)=O` (stereo not given), the T/C is 95 % of control under setting [4], 100 % of control under setting [5] and 91 % of control under setting [6].
For the compound `C=CC[Se]c1nc(N)nc2c1ncn2C1OC(CO)C(O)C1O` (stereo not given), the T/C reads like this: (dose: 6.25 mg/kg/injection, schedule: Q01DX009 (ip), vehicle: saline) 105 % of control; (dose: 6.25 mg/kg/injection, schedule: Q04DX003 (ip), vehicle: saline) 100 % of control; (dose: 12.5 mg/kg/injection, schedule: Q01DX009 (ip), vehicle: saline) 111 % of control; (dose: 12.5 mg/kg/injection, schedule: Q04DX003 (ip), vehicle: saline) 100 % of control; (dose: 25.0 mg/kg/injection, schedule: Q01DX009 (ip), vehicle: saline) 100 % of control; (dose: 25.0 mg/kg/injection, schedule: Q04DX003 (ip), vehicle: saline) 95 % of control and 104 % of control. The T/C (dose: 50.0 mg/kg/injection, schedule: Q04DX003 (ip), vehicle: saline) was 90 % of control and the T/C under setting [4] was 90 % of control.
With `CC(=O)O[C@@H]1C[C@@]2(C)[C@@H]3CC=C4[C@@H](C[C@H](O)C(=O)C4(C)C)[C@]3(C)C(=O)C[C@]2(C)[C@H]1[C@@](C)(O)C(=O)/C=C/C(C)(C)OC(C)=O`, the T/C (dose: 12.5 mg/kg/injection, schedule: Q01DX010 (ip), vehicle: carboxymethylcellulose (CMC)) was 109 % of control; the T/C (dose: 25.0 mg/kg/injection, schedule: Q01DX010 (ip), vehicle: carboxymethylcellulose (CMC)) was 122 % of control; the T/C (dose: 50.0 mg/kg/injection, schedule: Q01DX010 (ip), vehicle: carboxymethylcellulose (CMC)) is 95 % of control.
`CN(C)C(=O)c1cccc(COc2ccc([N+](=O)[O-])cc2Cl)c1`: the T/C reads like this: (dose: 100.0 mg/kg/injection, schedule: Q01DX001 (ip), vehicle: Klucel (hydroxypropylcellulose) (HPC)) 109 % of control; (dose: 132.0 mg/kg/injection, schedule: Q01DX009 (ip), vehicle: saline sonified) 91 % of control; (dose: 200.0 mg/kg/injection, schedule: Q01DX001 (ip), vehicle: Klucel (hydroxypropylcellulose) (HPC)) 109 % of control; (dose: 200.0 mg/kg/injection, schedule: Q01DX009 (ip), vehicle: saline sonified) 87 % of control; (dose: 300.0 mg/kg/injection, schedule: Q01DX009 (ip), vehicle: saline sonified) 87 % of control; (dose: 400.0 mg/kg/injection, schedule: Q01DX001 (ip), vehicle: Klucel (hydroxypropylcellulose) (HPC)) 104 % of control.
For `O=[N+]([O-])c1ccc(C(Br)C(Br)c2ccccc2Cl)cc1` (stereo not given), the T/C is 100 % of control (dose: 100.0 mg/kg/injection, schedule: Q04DX003 (ip), vehicle: Klucel (hydroxypropylcellulose) (HPC)); 100 % of control (dose: 200.0 mg/kg/injection, schedule: Q04DX003 (ip), vehicle: Klucel (hydroxypropylcellulose) (HPC)); 100 % of control (dose: 400.0 mg/kg/injection, schedule: Q04DX003 (ip), vehicle: Klucel (hydroxypropylcellulose) (HPC)).
Take `CCCCCCCCOP(=O)(N1CC1C)N1CC1C` (stereo not given): the T/C under setting [4] was 154 % of control.
For `CN(C)CCCN1CCC2(CC[C@H]3CCCC[C@@H]3C2)CC1`, the T/C reads like this: (dose: 18.75 mg/kg/injection, schedule: Q04DX003 (ip), vehicle: saline) 100 % of control; (dose: 37.5 mg/kg/injection, schedule: Q04DX003 (ip), vehicle: saline) 109 % of control; (dose: 75.0 mg/kg/injection, schedule: Q04DX003 (ip), vehicle: saline) 113 % of control.
As for `O=C(CCCCC(=O)N/N=C\c1ccccn1)N/N=C\c1ccccn1`, the T/C runs as follows: under setting [4], 104 % of control; under setting [5], 100 % of control; under setting [6], 109 % of control.
As to `C[N+]1(C)N=C([O-])N(c2ccccc2C(F)(F)F)C1=O`, the T/C is 87 % of control under setting [7] and 92 % of control under setting [8].
For `CC(C)CCCBr`, the T/C under setting [8] was 118 % of control; the T/C under setting [1] was 108 % of control; the T/C under setting [9] was 113 % of control; the T/C under setting [2] is 112 % of control; the T/C (dose: 400.0 mg/kg/injection, schedule: Q01DX009 (ip), vehicle: saline with Tween-80) was 122 % of control; the T/C under setting [3] was 108 % of control.
Turning to `COC1CC(OS(=O)(=O)c2ccc(C)cc2)C(O)C(C)O1` (stereo not given), the T/C was 98 % of control and 97 % of control under setting [7]; 100 % of control and 109 % of control under setting [8]; 99 % of control under setting [1]; 96 % of control and 103 % of control under setting [9]; 97 % of control under setting [2]; 96 % of control under setting [3].
